# Measurements reported in ChEMBL document CHEMBL1143774, “Parallel strategies for the preparation and selection of liver-targeted glucocorticoid receptor antagonists” (Bioorg Med Chem Lett, 2007).
# How the values were obtained:
# Glucocorticoid receptor [1] = biological target: T1, Glucocorticoid receptor (Homo sapiens, UniProt P04150); assay: Inhibition of human GR expressed in hGRAF cells; assay type: cell-based
# T1 sequence (P04150 whole entry): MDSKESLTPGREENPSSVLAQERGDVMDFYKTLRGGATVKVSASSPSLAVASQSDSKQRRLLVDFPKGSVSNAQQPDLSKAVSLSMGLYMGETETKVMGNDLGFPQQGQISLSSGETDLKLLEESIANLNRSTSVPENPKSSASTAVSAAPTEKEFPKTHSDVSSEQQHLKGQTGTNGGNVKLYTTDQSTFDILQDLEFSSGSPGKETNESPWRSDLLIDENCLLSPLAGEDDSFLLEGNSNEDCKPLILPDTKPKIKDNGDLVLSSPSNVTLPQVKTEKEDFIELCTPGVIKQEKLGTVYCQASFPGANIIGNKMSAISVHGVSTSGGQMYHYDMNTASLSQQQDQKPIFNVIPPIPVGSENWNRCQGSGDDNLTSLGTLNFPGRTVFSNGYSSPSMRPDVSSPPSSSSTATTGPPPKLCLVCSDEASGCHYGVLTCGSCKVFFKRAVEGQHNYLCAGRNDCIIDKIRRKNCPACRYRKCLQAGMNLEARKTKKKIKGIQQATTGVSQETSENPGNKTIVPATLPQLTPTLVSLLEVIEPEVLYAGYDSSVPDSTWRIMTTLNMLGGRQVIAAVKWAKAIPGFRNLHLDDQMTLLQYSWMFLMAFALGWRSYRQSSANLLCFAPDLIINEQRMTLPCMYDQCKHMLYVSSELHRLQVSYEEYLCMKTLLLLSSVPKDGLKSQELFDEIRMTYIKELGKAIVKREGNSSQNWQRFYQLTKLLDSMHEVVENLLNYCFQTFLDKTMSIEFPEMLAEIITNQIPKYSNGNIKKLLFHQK
# Glucocorticoid receptor [2] = biological target: T1, Glucocorticoid receptor; assay: Displacement of radiolabeled Dexamethasone from human GR
# Glucocorticoid receptor [3] = biological target: T1, Glucocorticoid receptor; assay: Inhibition of human GR transcriptional activation by HepTAT cells; assay type: cell-based
# Rattus norvegicus [4] = assay: Inhibition of prednisilone-induced lymphopenia in Sprague-Dawley rats at 100 mg/kg, po; assay type: functional
# Rattus norvegicus [5] = assay: Inhibition of prednisilone-induced TAT level in Sprague-Dawley rats at 100 mg/kg, po; assay type: functional
# Rattus norvegicus [6] = assay: Inhibition of prednisilone-induced glycogen depostion in Sprague-Dawley rats at 100 mg/kg, po; assay type: functional
# [7] = Drug level in Sprague-Dawley rat liver after 1 hr; assay type: ADME, tissue-based; conditions: read-out: Activity
# [8] = Ratio of drug level in liver to plasma in Sprague-Dawley rat at 1 hr; assay type: ADME, tissue-based; conditions: liver and plasma
Structure (SMILES),Ki (Glucocorticoid receptor [1]) [nM],Ki (Glucocorticoid receptor [2]) [nM],Ki (Glucocorticoid receptor [3]) [nM],inhibition in vivo at 100 mg/kg (Rattus norvegicus [4]) [%],inhibition in vivo at 100 mg/kg (Rattus norvegicus [5]) [%],inhibition in vivo at 100 mg/kg (Rattus norvegicus [6]) [%],concentration at 1 h [7] [ng/g],Kp at 1 h [8]
CC#C[C@]1(O)CC[C@H]2[C@@H]3CCC4=CC(=O)CCC4=C3[C@@H](c3ccc(N(C)CC(=O)N(Cc4ccccc4)Cc4ccc(C(=O)O)cc4)cc3)C[C@@]21C,39,1.1,57,–,–,–,–,–
CC#C[C@]1(O)CC[C@H]2[C@@H]3CCC4=CC(=O)CCC4=C3[C@@H](c3ccc(N(C)Cc4ccc(C(=O)N[C@H](CCSC)C(=O)O)cc4OC)cc3)C[C@@]21C,–,–,–,-4,-27,8,–,–
CC#C[C@]1(O)CC[C@H]2[C@@H]3CCC4=CC(=O)CCC4=C3[C@@H](c3ccc(N(C)Cc4ccc(C(C)C(=O)O)cc4)cc3)C[C@@]21C (stereo partly drawn),–,–,–,–,–,–,37000,17
CC#C[C@]1(O)CC[C@H]2[C@@H]3CCC4=CC(=O)CCC4=C3[C@@H](c3ccc(N(C)CC(=O)N(C)Cc4cccc(C(=O)O)c4)cc3)C[C@@]21C,–,–,–,-10,20,9,–,–
CC#C[C@]1(O)CC[C@H]2[C@@H]3CCC4=CC(=O)CCC4=C3[C@@H](c3ccc(N(C)Cc4ccc(C(=O)O)cc4)cc3)C[C@@]21C,12,1.8,52,123,106,94,–,–
CC#C[C@]1(O)CC[C@H]2[C@@H]3CCC4=CC(=O)CCC4=C3[C@@H](c3ccc(N(C)CC(=O)Nc4nc(CC(=O)O)cs4)cc3)C[C@@]21C,765,35,31,–,–,–,–,–
CC#C[C@]1(O)CC[C@H]2[C@@H]3CCC4=CC(=O)CCC4=C3[C@@H](c3ccc(N(C)Cc4ccc(C(=O)NCC(=O)O)cc4)cc3)C[C@@]21C,90,0.6,36,40,48,47,–,–
CC#C[C@]1(O)CC[C@H]2[C@@H]3CCC4=CC(=O)CCC4=C3[C@@H](c3ccc(N(C)CC(=O)N(Cc4ccc(C(=O)O)cc4)c4ccc(Br)cc4)cc3)C[C@@]21C,33,0.9,33,–,–,–,–,–
CC#C[C@]1(O)CC[C@H]2[C@@H]3CCC4=CC(=O)CCC4=C3[C@@H](c3ccc(N(C)Cc4cccc(C(=O)O)c4)cc3)C[C@@]21C,30,3,112,–,–,–,–,–
CC#C[C@]1(O)CC[C@H]2[C@@H]3CCC4=CC(=O)CCC4=C3[C@@H](c3ccc(N(C)CC(=O)N(C)c4ccc(C(=O)O)cc4)cc3)C[C@@]21C,21,0.5,64,–,–,–,–,–
CC#C[C@]1(O)CC[C@H]2[C@@H]3CCC4=CC(=O)CCC4=C3[C@@H](c3ccc(N(C)CCCCC(=O)O)cc3)C[C@@]21C,15,4.8,127,–,–,–,–,–
CC#C[C@]1(O)CC[C@H]2[C@@H]3CCC4=CC(=O)CCC4=C3[C@@H](c3ccc(N(C)CC(=O)Nc4ccc(C(=O)O)cc4)cc3)C[C@@]21C,91.8,2.7,75,–,–,–,–,–
CC#C[C@]1(O)CC[C@H]2[C@@H]3CCC4=CC(=O)CCC4=C3[C@@H](c3ccc(N(C)Cc4ccc(CC(=O)O)cc4)cc3)C[C@@]21C,4.4,1.8,32,117,95,101,–,–
CC#C[C@]1(O)CC[C@H]2[C@@H]3CCC4=CC(=O)CCC4=C3[C@@H](c3ccc(N(C)Cc4ccc(C(=O)NCc5cccc(C(=O)O)c5)cc4)cc3)C[C@@]21C,–,–,–,-10,3,-12,–,–
CC#C[C@]1(O)CC[C@H]2[C@@H]3CCC4=CC(=O)CCC4=C3[C@@H](c3ccc(N(C)C)cc3)C[C@@]21C [MIFEPRISTONE],–,–,–,104,101,77,–,–
